Data on 4 compounds can be found in patent publication US20150045312A1, “Use of Compounds Elevating Glutathione Levels for the Treatment of Autism, Autistic Spectrum Disorders and Fragile X Syndrome” (Promentis Pharmaceuticals, Inc., priority 2013, published 2015).

For data set [1] the following is noted: schizophrenia, bipolar disorder, obsessive-compulsive disorder, autism; cited from earlier work.
For data set [2] the following is noted: autistic patients, added to risperidone treatment; cited from earlier work.
The conditions of data set [3]: in vivo; cited from earlier work.
The conditions of data set [4]: cited from earlier work.
Another data set concerns the target T1, system xc− (Homo sapiens, UniProt Q9UPY5).
T1 construct: a cell line with high system xc− expression; endogenous in cells; host or cells: 1321N1 human astrocytoma cells
T1 sequence (Q9UPY5 1-501): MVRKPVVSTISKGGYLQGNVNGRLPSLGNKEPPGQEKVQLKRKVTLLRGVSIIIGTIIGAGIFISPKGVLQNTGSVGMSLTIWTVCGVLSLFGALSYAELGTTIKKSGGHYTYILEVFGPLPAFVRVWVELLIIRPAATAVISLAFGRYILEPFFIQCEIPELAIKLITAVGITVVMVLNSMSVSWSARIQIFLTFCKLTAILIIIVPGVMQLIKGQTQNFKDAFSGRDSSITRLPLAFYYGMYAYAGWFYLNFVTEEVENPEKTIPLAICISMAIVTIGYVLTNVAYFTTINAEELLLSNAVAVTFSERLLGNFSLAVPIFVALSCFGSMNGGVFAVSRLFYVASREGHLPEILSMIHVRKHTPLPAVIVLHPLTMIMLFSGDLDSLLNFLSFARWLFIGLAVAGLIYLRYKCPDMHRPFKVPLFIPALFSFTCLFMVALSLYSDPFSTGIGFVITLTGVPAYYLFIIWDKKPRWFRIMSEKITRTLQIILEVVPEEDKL
T1 sequence (P08195 1-529 partner): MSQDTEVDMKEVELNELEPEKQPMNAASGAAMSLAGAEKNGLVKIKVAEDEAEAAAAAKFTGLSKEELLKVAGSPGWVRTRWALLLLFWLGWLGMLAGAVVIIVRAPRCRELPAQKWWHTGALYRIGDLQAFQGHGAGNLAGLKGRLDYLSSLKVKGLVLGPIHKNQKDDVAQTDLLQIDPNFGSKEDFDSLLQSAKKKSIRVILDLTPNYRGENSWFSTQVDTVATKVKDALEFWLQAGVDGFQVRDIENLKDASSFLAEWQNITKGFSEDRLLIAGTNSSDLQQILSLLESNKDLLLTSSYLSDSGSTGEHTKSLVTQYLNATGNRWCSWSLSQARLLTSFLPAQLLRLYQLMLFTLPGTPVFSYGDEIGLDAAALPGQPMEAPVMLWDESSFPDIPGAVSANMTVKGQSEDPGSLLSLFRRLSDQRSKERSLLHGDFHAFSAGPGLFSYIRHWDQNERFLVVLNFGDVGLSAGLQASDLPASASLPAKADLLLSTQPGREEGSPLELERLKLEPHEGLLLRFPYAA
Description: in vitro screening assay in human glial cells from brain astrocytoma (1321N1). The format is cell-based. The note with it: 1321N1 cells, high system xc− expression. The source says:
Using an in vitro screening assay conducted in human glial cells from brain astrocytoma (1321N1), a cell line with high system xc− expression, the compound with the following formula: […]
Using an in vitro screening assay conducted in human glial cells from brain astrocytoma (1321N1), a cell line with high System xc− expression, the compound with the following formula: […]

Data set [5] can be described thus: pre-pulse inhibition (PPI) efficacy model of neuropsychiatric disease activity. The format is in vivo.
Data set [6] is described as follows: elevated plus maze (EPM) efficacy model of neuropsychiatric disease activity. The format is in vivo. The note with it: orally-active.

In the case of `CC(=O)N[C@@H](CS)C(=O)O` [NAC, N-acetyl cysteine], the “symptoms of mental disorders” value in data set [1] was “modestly improve symptoms”. For the same compound, the “irritability versus risperidone+placebo” value in data set [2] is recorded as “significantly decrease irritability”. The “entry into the CNS” value in data set [3] is reported as “do not readily enter the CNS”. In data set [4], the solubility characteristics result is recorded as “poor solubility characteristics”.
On to `O=C(Cc1ccccc1)N[C@@H](CSC(c1ccccc1)(c1ccccc1)c1ccccc1)C(=O)O` [drawing 15], for which, on system xc−, the 3H-glutamate result is reported as “significant elevations”; the “uptake of 14C-cystine” value was “robust and significant decrease”.
Regarding `O=C(Cc1ccccc1)N[C@@H](CSC(c1ccccc1)(c1ccccc1)c1ccccc1)C(=O)O` [drawing 16], the “response in PPI model compared with clozapine” value in data set [5] (at a comparable dose range, similar to clozapine) is given as “antipsychotic-like response”. Further, the “behavioral effects in PPI model” value in data set [5] (orally-active) is “significant behavioral effects”. Further, in data set [6], the “behavioral effects in EPM model” value is “significant behavioral effects”.
On to `N[C@@H](CCC(=O)N[C@@H](CS)C(=O)NCC(=O)O)C(=O)O` [glutathione], for which the “entry into the CNS” value in data set [3] is recorded as “do not readily enter the CNS”. Also, the solubility characteristics result in data set [4] is “poor solubility characteristics”.
